# Assay results taken from ChEMBL document CHEMBL4477199, “Design and synthesis of novel bicalutamide and enzalutamide derivatives as antiproliferative agents for the treatment of prostate cancer” (Eur J Med Chem, 2016).
# pIC50: −log10 of the molar value.
# Columns and labels:
# [1] = 33000 µM
# Description: Solubility in 100% DMSO at 33 mM at -20 degC
# LNCaP = test: Antiproliferative activity against human LNCAP cells after 96 hrs by propidium iodide staining based fluorescence 2D monolayer assay; type: functional, cell-based
# CWR22R = test: Antiproliferative activity against human 22Rv1 cells after 96 hrs by propidium iodide staining based fluorescence 2D monolayer assay; type: functional, cell-based; conditions: 22Rv1, 96 h
# VCaP = test: Antiproliferative activity against human VCaP cells after 96 hrs by propidium iodide staining based fluorescence 2D monolayer assay; type: functional, cell-based
# [2] = 96 h
# Description: Solubility in RPMI1640 culture medium at <30 uM incubated for 4 days by microscopic analysis
# DU-145 = test: Antiproliferative activity against human DU145 cells after 96 hrs by propidium iodide staining based fluorescence 2D monolayer assay; type: functional, cell-based; conditions: DU-145, 96 h
Compound,solubility [1],pIC50 (LNCaP),pIC50 (CWR22R),pIC50 (VCaP),solubility [2],pIC50 (DU-145)
CC(O)(COc1cccc(C(F)(F)F)c1)C(=O)Nc1ccc(C(F)(F)F)cc1 (stereo unspecified),Soluble,4.74,4.59,4.73,Soluble,4.56
CC(O)(COc1ccc(C#N)c(F)c1)C(=O)Nc1ccc(C#N)cc1C(F)(F)F (stereo unspecified),Soluble,4.11,4.34,4.11,Soluble,4.16
CC1(C)C(=O)N(c2cccc(C(F)(F)F)c2)C(=O)N1c1ccc(C#N)cc1C(F)(F)F,Soluble,4.74,4.23,4.00,Soluble,4.00
CC(O)(CSc1ccc(C(F)(F)F)cc1)C(=O)Nc1ccc(C#N)cc1C(F)(F)F (stereo unspecified),Soluble,–,–,–,Soluble,–
CC(O)(CSc1ccc(C(F)(F)F)cc1)C(=O)Nc1ccc([N+](=O)[O-])cc1C(F)(F)F (stereo unspecified),Soluble,5.06,4.83,4.77,Soluble,4.72
CC(O)(COc1cccc(C(F)(F)F)c1)C(=O)Nc1ccc(C#N)cc1C(F)(F)F (stereo unspecified),Soluble,4.82,4.73,4.67,Soluble,4.49
CC(O)(CSc1cccc(C(F)(F)F)c1)C(=O)Nc1ccc(C#N)cc1C(F)(F)F (stereo unspecified),Soluble,4.95,4.82,4.63,Soluble,4.68
CC(O)(CS(=O)(=O)c1ccccc1OC(F)(F)F)C(=O)Nc1ccc([N+](=O)[O-])cc1C(F)(F)F (stereo unspecified),Soluble,4.75,4.54,4.29,Soluble,4.41
CC(O)(CS(=O)(=O)c1ccccc1C(F)(F)F)C(=O)Nc1ccc(C#N)c(C(F)(F)F)c1 (stereo unspecified),Soluble,4.37,4.33,4.23,Soluble,4.26
CC(O)(CSc1cccc(C(F)(F)F)c1)C(=O)Nc1ccc([N+](=O)[O-])cc1C(F)(F)F (stereo unspecified),Soluble,5.00,4.90,4.78,Soluble,4.84
CC1(C)C(=O)N(c2cccc(C(F)(F)F)c2)C(=O)N1c1ccc(C(F)(F)F)cc1,Soluble,4.78,4.03,4.00,Soluble,4.00
C[C@](O)(CS(=O)(=O)c1ccccc1C(F)(F)F)C(=O)Nc1ccc(C#N)c(C(F)(F)F)c1,Soluble,4.49,4.46,4.43,Soluble,4.35
CC1(C)C(=O)N(c2cccc(C(F)(F)F)c2)C(=O)N1c1ccc([N+](=O)[O-])c(C(F)(F)F)c1,Soluble,4.82,4.00,4.00,Soluble,4.00
CC(O)(CS(=O)(=O)c1cccc(C(F)(F)F)c1)C(=O)Nc1ccc(C#N)c(C(F)(F)F)c1 (stereo unspecified),Soluble,4.83,4.68,4.40,Soluble,4.41
CC(O)(COc1ccc(F)cc1F)C(=O)Nc1ccc(C#N)c(C(F)(F)F)c1 (stereo unspecified),Soluble,4.43,4.47,4.41,Soluble,4.35
CC(O)(COc1cccc(OC(F)(F)F)c1)C(=O)Nc1ccc(C#N)c(C(F)(F)F)c1 (stereo unspecified),Soluble,5.01,5.01,5.00,Soluble,4.79
C[C@](O)(CS(=O)(=O)c1ccc(F)cc1)C(=O)Nc1ccc(C#N)cc1C(F)(F)F,Soluble,4.07,4.00,4.00,Soluble,4.00
CC(O)(CS(=O)(=O)c1ccc(C(F)(F)F)cn1)C(=O)Nc1ccc([N+](=O)[O-])cc1C(F)(F)F (stereo unspecified),Soluble,4.00,4.00,4.00,Soluble,4.00
CC(O)(CS(=O)(=O)c1ccc(F)cc1)C(=O)Nc1ccc(C#N)cc1C(F)(F)F (stereo unspecified),Soluble,4.04,4.11,4.19,Soluble,4.00
CC(O)(CSc1cccc(OC(F)(F)F)c1)C(=O)Nc1ccc(C(F)(F)F)cc1 (stereo unspecified),Soluble,4.86,4.80,4.73,Soluble,4.56
